These results are taken from patent US20070037782A1, “Therapeutic agent for ageing macular degeneration” (MEIJI DAIRIES CORPORATION, priority 2003, published 2007).

The test deals with rat model of laser-induced choroidal neovascularization. Description: Inhibitory effect on choroidal neovascularization (CNV) after subconjunctival administration, rat model of laser-induced CNV. The format is in vivo, Rats (Brown Norway). The conditions noted are these: for incidence of CNV relative to that of the base group: single subconjunctival administration, 14 days after photocoagulation, mean±S.E., P<0.01 vs base group. As to the method: An inhibitory effect on choroidal neovascularization caused by the subconjunctival administration of FMPA was assessed using a rat model of laser-induced choroidal neovascularization (which may hereinafter be abbreviated as CNV).
Rats (Brown Norway, 8 week old, male) were given general anesthesia and their pupils were dilated with one drop of commercially available eye-drops (“Mydrin P”, trade name; product of Santen Pharmaceutical Co. Ltd.) They were then subjected to photocoagulation by a krypton laser photocoagulation apparatus (“MC-7000L”, manufactured by NIDEK Co., Ltd.). The photocoagulation was performed sporadically at 8 sites while focusing on the deep layer of the retina and avoiding laser irradiation to thick retinal blood vessels (coagulation conditions: spot size of 100μm, output of 100 mW and coagulation time for 0.1 second). This photocoagulation was given to both eyes. After photocoagulation, the sites exposed to laser were confirmed by fundus photography. These rats were bred for 14 days, whereby CNV rat models were produced. […]
Fourteen days after photocoagulation, 0.1 mL of 10 wt.% fluorescein was injected through the caudal vein and based on the photograph taken by a fluorescein fundus camera (“Pro III”, product of Kowa Company Ltd), presence or absence of CNV was observed. […] A ratio of the number of positive sites to the number of all the exposed sites (8 sites) of eyeballs was calculated and the incidence of CNV of each administration group was calculated when the CNV incidence of the base group (Group 1) was assumed to be 1.00. […]
The incidence of CNV was expressed as a mean value±S.E. Comparison between the base group (Group 1) and each FMPA group (Groups 2 and 3) was made using analysis of variance, followed by Dunnett multiple comparison tests, while comparison between the base group and Comparative medicament group (Group 4) or comparison between the FMPA group (Group 2) and Comparative medicament group was made using t-test. […]

As to `CC(=O)O[C@]1(C(C)=O)CC[C@H]2[C@@H]3C[C@H](C)C4=CC(=O)CC[C@]4(C)[C@@]3(F)CC[C@@]21C` [FMPA, 9α-fluoromedroxyprogesterone acetate], the “incidence of CNV relative to that of the base group” value is given as 62.2±6.7% (1000 μg/eye) and 48.9±6.5% (3000 μg/eye). In addition, the “CNV inhibitory effect (in words)” value (1000 and 3000 μg/eye, subconjunctival, rat) is on record as “dose-dependent CNV inhibitory effect”.
